Here are results for ten compounds from PMC12582325 (Proceedings of the National Academy of Sciences of the …, 2025).

The target of assay [1] is T1, Sc Ste2 (Saccharomyces cerevisiae, UniProt D6VTK4).
T1 construct: The native Sc system and an empty construct were added as positive and negative controls; endogenous in cells; host or cells: Saccharomyces cerevisiae wild-type control strains GEN18 (MATa) and GEN27 (MATα)
T1 sequence (D6VTK4 1-431): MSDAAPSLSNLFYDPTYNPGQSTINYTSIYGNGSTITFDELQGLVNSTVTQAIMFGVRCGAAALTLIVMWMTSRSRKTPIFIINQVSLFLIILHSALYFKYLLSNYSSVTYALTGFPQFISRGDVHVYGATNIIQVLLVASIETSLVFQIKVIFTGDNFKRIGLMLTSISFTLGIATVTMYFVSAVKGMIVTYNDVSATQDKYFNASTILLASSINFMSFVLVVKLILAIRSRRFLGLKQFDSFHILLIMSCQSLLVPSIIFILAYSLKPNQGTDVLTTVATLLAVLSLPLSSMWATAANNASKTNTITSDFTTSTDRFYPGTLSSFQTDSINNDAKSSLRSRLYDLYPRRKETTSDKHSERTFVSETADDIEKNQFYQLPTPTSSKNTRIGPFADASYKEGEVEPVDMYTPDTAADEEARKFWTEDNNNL
Type of assay: cell-based.

Assay [2] relates to Mo Ste2 GPCR. Type of assay: cell-based, Magnaporthe oryzae.
The subject of assay [3] is Ca.Ste2. Type of assay: cell-based, Candida albicans.
Assay [4] concerns Fo.Ste2. The class given is cell-based, Fusarium oxysporum.
Assay [5] relates to Fg.Ste2. Type of assay: cell-based, Fusarium graminearum.
The subject of assay [6] is Nc Ste2 GPCR. Type of assay: cell-based, Neurospora crassa.
For assay [7], the system named is Bc.Ste2. Type of assay: cell-based, Botrytis cinerea.
The test system of assay [8] is empty (strain lacking a GPCR). The class given is cell-based, Saccharomyces cerevisiae.
For assay [9], the system named is Bb.Ste2. Type of assay: cell-based, Beauveria bassiana.
The test system of assay [10] is Hj Ste2 GPCR (Hj.Hpr2). The class given is cell-based, Hypocrea jecorina.
Assay [11] has as its system Fo.Ste2. The class given is cell-based, Fusarium oxysporum. This is another data set of the same source.
In assay [12] the test system is Hj.Hpr2. The class given is cell-based, Hypocrea jecorina.
Assay [13] deals with F. oxysporum germ tubes. The settings on record: gradient of 400 μM pheromone against the solvent (50% methanol); 13 h; water-agar; three biological replicates; Fig. 5A.
Method: For the B. bassiana and F. oxysporum chemotropism assay and plant infection assays the pheromones were dissolved in 50% (v/v) MeOH to reach a concentration of 4,000 μM.
Fungal chemotropism was conducted as previously described ([11]). For each compound or combination of compounds tested, 300 hyphal tips were scored. All experiments were performed in three biological replicates.
Assay [14] relates to F. oxysporum microconidia. Kind of assay: Germination of F. oxysporum microconidia. Details: Germination of F. oxysporum microconidia (data of Sup.Fig.10): unit not given here. Type of assay: cell-based, Fusarium oxysporum f. sp. lycopersici 4287. The settings on record: for Germination of F. oxysporum microconidia (data of Sup.Fig.10): 400 μM pheromone, 13 h, at least 300 spores counted. Here is the method:
For F. oxysporum microconidia production, the strain was grown for 3 to 4 d in liquid potato dextrose broth (PDB) at 28 °C and 170 rpm. Germination media ([10]) was used for assessing the spore germination. RE was prepared by removing 2-wk-old tomato plants from vermiculite and washing the roots to remove any adhering substrates ([11]).
Supplementary Figure 10. Germination of F. oxysporum microconidia after 13 h of incubation in Germination Media at a cell density of […] microconidia/mL. The assay was performed with 400 μM of pheromone. All points represent the average of three biological replicates in which at least 300 spores were counted. Statistical significance was determined through one-way analysis of variance (ANOVA) with Dunnett’s multiple comparisons (✱p ≤ 0.05).

For assay [15], the system named is B. bassiana. The class given is cell-based, Beauveria bassiana. The settings on record: 20 hours.
In assay [16] the test system is Bc.Ste2. The class given is cell-based, Botrytis cinerea. The settings on record: 0.0005 μM Bc pheromone in combination with 10 μM peptide; four biological replicates; Fig. 2G.
In assay [17] the test system is Fg.Ste2. Type of assay: cell-based, Fusarium graminearum. This is another data set of the same source.
Assay [18] deals with Bc.Ste2. The class given is cell-based, Botrytis cinerea. This is another data set of the same source.
Assay [19] relates to Bb.Ste2. Type of assay: cell-based, Beauveria bassiana. The source holds these as a separate data set.
Assay [20] relates to no_GPCR (negative control lacking a GPCR). The class given is cell-based, Saccharomyces cerevisiae. Particulars: SC-AS/Urea compared to SC media with ammonium sulfate alone.
Assay [21] relates to Fg.Ste2. The settings on record: SC-AS/Urea compared to SC media with ammonium sulfate alone.
For assay [22], the system named is Bb.Ste2. The class given is cell-based, Beauveria bassiana. This is another data set of the same source.
The subject of assay [23] is Fo.Ste2. The class given is cell-based, Fusarium oxysporum. This is another data set of the same source.
Setting [24] is: Fig. 1D mating matrix, pheromone secreted by MATa strain, GPCR in MATα strain, deep well plate, 20 h coculture, three technical plating replicates.
The mark [25] stands for this setting: Fig. 1D mating matrix, pheromone secreted by MATa strain, MATα strain lacking a GPCR (empty), deep well plate, 20 h coculture.

Where “and” joins values, the source holds several entries; their conditions need not be identical. Identical values can stand only once. Like-named read-outs stand apart in the source and are kept apart here. Where a SMILES comes first, the peptide text is derived from it.

Turning to “WHWLQLKPGQPMY [Sc, alpha pheromone of Saccharomyces cerevisiae]”, the “Diploid frequency (%)” value in assay [1] turned out to be 90.9%; in assay [2] (setting [24]), 0.2%; in assay [3] it was 0.0%; in [4] it was 0.0%; in assay [5] (setting [24]) it was 0.0%; in [6] it was 0.0%. Besides, the “Diploid frequency (%)” value amounted to 0.1% in [7], 0.2% in assay [8] (setting [25]), 0.0% in [9] (setting [24]) and 0.0% in assay [10].
With “QWCRIHGQSCW [Nc, alpha pheromone of Neurospora crassa]”, the “Diploid frequency (%)” value in assay [1] turned out to be 0.0%; in [2] (setting [24]), 0.0%; in assay [3] it was 0.0%; in assay [4] it was 0.0%; in assay [5] (setting [24]), 0.0%; in assay [6], 2.8%. For the same compound, the “Diploid frequency (%)” value came to 0.1% in [7], 0.1% in assay [8] (setting [25]), 0.0% in assay [9] (setting [24]) and 0.0% in assay [10].
As for `CC(C)C[C@H](NC(=O)[C@H](CS)NC(=O)[C@@H](N)Cc1c[nH]c2ccccc12)C(=O)N[C@@H](Cc1c[nH]c2ccccc12)C(=O)N[C@@H](CCCNC(=N)N)C(=O)NCC(=O)N[C@@H](CCC(N)=O)C(=O)N1CCC[C@H]1C(=O)N[C@@H](CS)C(=O)N[C@@H](Cc1c[nH]c2ccccc12)C(=O)O` [A5] (H-WCLWRGQPCW-OH; N-terminus assumed), in [11], the “EC50 fold lower than that of the native Fo alpha pheromone” value is “at least 13 fold” and the logEC50 is listed as -8.637.
“WCYRIGEPCW [Hj, alpha pheromone of Hypocrea jecorina (Trichoderma reseei)]”: the “Sup.Fig.7B - Hj, group mean” value in assay [12] (pH=6) was 0.1033; in [12] (pH=7), 0.03. Further, in assay [12] (ph=7), the “qPCR, Hj + Hj” value worked out at 0.0033. In addition, the “Diploid frequency (%)” value was found to be 0.0% in assay [1]; 0.1% in assay [2]; 0.1% in assay [3]; 0.0% in [4]; 0.0% in assay [5]; 0.1% in assay [6]. Moreover, the “Diploid frequency (%)” value in [7] is 0.1%; in assay [8] it was 0.1%; in [9] it was 4.9%; in assay [10], 0.1%. Further, in assay [10], the “diploid frequency (%), Plates, Hj” value is 0.67% and 0.16% and 0.05% and 1.62% and 0.03% and 1.07% and 0.1% and 0.01%.
“WRWPCCWGQT [Scrambled, Scrambled version of F. oxysporum pheromone, negative control]”: the “Chemotropic response in F. oxysporum germ tubes” value in assay [13] is on record as “did not”. Further, the “Germination of F. oxysporum microconidia (data of Sup.Fig.10)” value in assay [14] (biological replicate 1 (first line)) is 53,95; in assay [14] (biological replicate 2 (second line)) it was 33,33; in assay [14] (biological replicate 3 (third line)), 27,4. The “Mean Diff, Solvent vs. peptide” value in [14] (Sup.Fig.10, Dunnett's multiple comparisons test, n = 3) is 5,543. Further, in assay [14] (Sup.Fig.10, Solvent control mean 43,77, mean of n = 3), the “Mean 2 (peptide), germination” value is reported as 38,23. Moreover, the “Chemotropic response in Bb germ tubes” value in assay [15] is on record as “did not”. Moreover, the “Effect on activation of Bc.Ste2 by Bc pheromone, in words” value in assay [16] is “do not differ significantly from Bc alone”.
Take “WCIQSGQPCW [A3, Fg.Ste2 - Agonist candidate from the YPL1 pheromone library]”: the “Sup.Fig.3A Fg.Ste2 biosensor response, group mean” value in assay [17] (Control mean 1, mean of n = 4) is on record as 1.455. Further, the “Activation of Fg.Ste2 biosensor, in words” value in [17] (chemically synthesized pheromone) is “almost no effect”.
In assay [18], `CC(C)C[C@H](NC(=O)[C@H](CC(C)C)NC(=O)[C@H](CS)NC(=O)[C@@H](N)Cc1c[nH]c2ccccc12)C(=O)N[C@@H](CC(=O)O)C(=O)NCC(=O)N[C@@H](CCC(N)=O)C(=O)N1CCC[C@H]1C(=O)N[C@@H](CS)C(=O)N[C@@H](Cc1c[nH]c2ccccc12)C(=O)O` [A6] (H-WCLLDGQPCW-OH; N-terminus and C-terminus assumed) showed a Hillslope of 0.5567 and a logEC50 of -8.01. The “Sup.Fig.3A Bc.Ste2 biosensor response, group mean” value in [18] (10 μM) is 1.225.
In the case of `NCCCC[C@H](NC(=O)[C@H](CO)NC(=O)CNC(=O)[C@H](CS)NC(=O)[C@@H](N)Cc1c[nH]c2ccccc12)C(=O)NCC(=O)N[C@@H](CCC(N)=O)C(=O)N1CCC[C@H]1C(=O)N[C@@H](CS)C(=O)N[C@@H](Cc1c[nH]c2ccccc12)C(=O)O` [A2] (H-WCGSKGQPCW-OH; N-terminus and C-terminus assumed), in [19], the “Activation of Bb.Ste2 biosensor, in words” value is on record as “higher EC50 values”; the Hillslope came to 1.362; the logEC50 was -3.661.
In assay [19], `CC(C)C[C@H](NC(=O)[C@H](CS)NC(=O)[C@@H](N)Cc1c[nH]c2ccccc12)C(=O)N[C@@H](CCCNC(=N)N)C(=O)N[C@H](C(=O)NCC(=O)N[C@@H](CCC(N)=O)C(=O)N1CCC[C@H]1C(=O)N[C@@H](CS)C(=O)N[C@@H](Cc1c[nH]c2ccccc12)C(=O)O)C(C)C` [A1] (H-WCLRVGQPCW-OH; N-terminus and C-terminus assumed) showed a logEC50 of -9.317.
With `NC(N)=O` [Urea], the “Fold increase of diploids containing Hj.Hpr2” value in assay [12] is on record as 20 fold. For the same compound, the “Effect on abundance of diploids with the control strain no_GPCR” value in assay [20] is recorded as “did not affect”. Also, in [21], the “Fold decrease in the abundance of diploids with Fg.Ste2” value is recorded as 0.8 fold. In addition, the “Increase of diploids containing Bb.Ste2” value in assay [22] is on record as “fourfold”. Moreover, the “Effect on abundance of diploids with Fo.Ste2” value in assay [23] was “did not affect”.
